Data from PubChem BioAssay (NCI).
“And” between values parts separate entries of the source, which are not always exact repeats. Equal values may be shown once.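 GI50 is the concentration that inhibits growth by half. TGI denotes the concentration required for complete inhibition of growth.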

Experiments:
Assay in all cases: inhibition of tumour cell growth, NCI panel, 384-well format
[1] = tested on: HL-60(TB) leukemia
[2] = tested on: HOP-92 NSCLC
[3] = tested on: SR leukemia
[4] = tested on: SW-620 colon
[5] = tested on: COLO 205 colon
[6] = tested on: BT-549 breast
[7] = tested on: MDA-MB-231 breast
[8] = tested on: CCRF-CEM leukemia
[9] = tested on: SF-295 CNS
[10] = tested on: SN12C renal
[11] = tested on: 786-0 renal
[12] = tested on: HCC-2998 colon
[13] = tested on: M14 melanoma
[14] = tested on: IGROV1 ovarian
[15] = tested on: OVCAR-3 ovarian
[16] = tested on: SK-OV-3 ovarian
[17] = tested on: SNB-19 CNS
[18] = tested on: NCI-H460 NSCLC
[19] = tested on: ACHN renal
[20] = tested on: SK-MEL-5 melanoma
[21] = tested on: SF-539 CNS
[22] = tested on: PC-3 prostate
[23] = tested on: UO-31 renal
[24] = tested on: K-562 leukemia
[25] = tested on: NCI-H23 lung
[26] = tested on: A549 NSCLC
[27] = tested on: OVCAR-8 ovarian
[28] = tested on: SNB-75 CNS
[29] = tested on: KM12 colon
[30] = tested on: LOX IMVI melanoma
[31] = tested on: SK-MEL-28 melanoma
[32] = tested on: MDA-MB-435 melanoma
[33] = tested on: RPMI-8226 leukemia
[34] = tested on: NCI-H322M lung
[35] = tested on: NCI-H522 lung
[36] = tested on: UACC-62 melanoma
[37] = tested on: CAKI-1 renal
[38] = tested on: SK-MEL-2 melanoma
[39] = tested on: NCI/ADR-RES ovarian
[40] = tested on: NCI-H226 lung
[41] = tested on: HS 578T breast
[42] = tested on: A498 renal
[43] = tested on: MCF7 breast
[44] = tested on: MDA-MB-468 breast
[45] = tested on: DU-145 prostate
[46] = tested on: RXF 393 renal
[47] = tested on: T-47D breast
[48] = tested on: MOLT-4 leukemia
[49] = tested on: SF-268 CNS
[50] = tested on: TK-10 renal
[51] = tested on: HOP-62 NSCLC
[52] = tested on: HCT-116 colon
[53] = tested on: U251 glioblastoma
[54] = tested on: HCT-15 colon
[55] = tested on: MALME-3M melanoma
[56] = tested on: OVCAR-5 ovarian
[57] = tested on: HT29 colon
[58] = tested on: OVCAR-4 ovarian
[59] = tested on: EKVX NSCLC

## Nc1nc2[nH]cc(CCc3ccc(C(=O)N[C@@H](CCC(=O)O)C(=O)O)cc3)c2c(=O)[nH]1
[1]
  GI50: 14.8 nM and 22.6 nM
  TGI: 30.5 nM and 57.5 nM
[2]
  GI50: > 100000 nM
  TGI: > 100000 nM
[3]
  GI50: 33.1 nM and 38.8 nM
[4]
  GI50: 47.2 nM and 70.8 nM
  TGI: 50000 nM and > 100000 nM
[5]
  GI50: 37.9 nM and 30.6 nM
[6]
  GI50: 194 nM and 37.6 nM
[7]
  GI50: 234 nM and 374 nM
  TGI: 1120 nM and 1630 nM
[8]
  GI50: 21.3 nM
  TGI: 73.3 nM
[9]
  GI50: 31.6 nM and 75.6 nM
[10]
  GI50: 45.8 nM and 36.6 nM
[11]
  GI50: 33.5 nM and 30.5 nM
  TGI: 50000 nM and 8170 nM
[12]
  GI50: 40.5 nM and 24 nM
  TGI: 50000 nM and > 100000 nM
[13]
  GI50: 105 nM and 56.1 nM
[14]
  GI50: > 50000 nM and 29800 nM
  TGI: > 100000 nM
[15]
  GI50: 336 nM and 286 nM
  TGI: 50000 nM and > 100000 nM
[16]
  TGI: > 100000 nM
[17]
  GI50: 1030 nM and 3660 nM
  TGI: 50000 nM and > 100000 nM
[18]
  GI50: 120 nM and 79.2 nM
  TGI: 50000 nM and > 100000 nM
[19]
  GI50: 180 nM and 80.4 nM
  TGI: 50000 nM and > 100000 nM
[20]
  TGI: > 100000 nM
[21]
  GI50: 72.1 nM and 41.9 nM
[22]
  GI50: 64.3 nM
  TGI: > 100000 nM
[23]
  GI50: 195 nM and 33.4 nM
[24]
  GI50: 11.8 nM
  TGI: 24.8 nM
[25]
  GI50: > 50000 nM and 9320 nM
  TGI: > 100000 nM
[26]
  GI50: 355 nM and 294 nM
  TGI: 50000 nM and > 100000 nM
[27]
  GI50: 44.7 nM and 50.1 nM
  TGI: 50000 nM and > 100000 nM
[28]
  GI50: 78.2 nM and 121 nM
[29]
  GI50: > 100000 nM
  TGI: > 100000 nM
[30]
  GI50: 88.3 nM
  TGI: > 100000 nM
[31]
  GI50: 167 nM
  TGI: 5610 nM
[32]
  TGI: 50000 nM and > 100000 nM
[33]
  GI50: 17.2 nM and 26 nM
  TGI: 40.2 nM and 52.8 nM
[34]
  GI50: > 100000 nM
  TGI: > 100000 nM
[35]
  GI50: 300 nM and 327 nM
[36]
  GI50: 350 nM and 445 nM
  TGI: 50000 nM and > 100000 nM
[37]
  GI50: 193 nM and 179 nM
  TGI: 50000 nM and > 100000 nM
[38]
  GI50: > 50000 nM
  TGI: > 50000 nM
[39]
  GI50: 267 nM and 151 nM
  TGI: 50000 nM and > 100000 nM
[40]
  GI50: 54 nM and 28.2 nM
[41]
  GI50: 254 nM and 276 nM
  TGI: 50000 nM and > 100000 nM
[42]
  TGI: 50000 nM and > 100000 nM
[43]
  GI50: 47.1 nM and 33.9 nM
  TGI: 50000 nM and > 100000 nM
[44]
  GI50: 131 nM and 322 nM
[45]
  GI50: 202 nM and 146 nM
  TGI: 50000 nM and > 100000 nM
[46]
  GI50: 24.8 nM
  TGI: 58.3 nM
[47]
  GI50: > 100000 nM
  TGI: > 100000 nM
[48]
  GI50: 12.1 nM and 19.2 nM
  TGI: 23.6 nM and 33.8 nM
[49]
  GI50: 45.8 nM and 33.4 nM
  TGI: 264 nM and 96.2 nM
[50]
  GI50: 245 nM and 760 nM
  TGI: 50000 nM and > 100000 nM
[51]
  GI50: 307 nM and 181 nM
  TGI: 50000 nM and > 100000 nM
[52]
  GI50: 38.7 nM and 61.8 nM
  TGI: 50000 nM and > 100000 nM
[53]
  GI50: 243 nM and 249 nM
[54]
  GI50: 1160 nM and 506 nM
  TGI: 50000 nM and > 100000 nM
[55]
  GI50: 3120 nM and 728 nM
  TGI: 50000 nM and > 100000 nM
[56]
  GI50: 1310 nM and 4200 nM
  TGI: 50000 nM and > 100000 nM
[57]
  GI50: 257 nM and 89 nM
  TGI: 50000 nM and > 100000 nM
[58]
  GI50: > 50000 nM and 6980 nM
  TGI: > 100000 nM
[59]
  TGI: > 100000 nM
